The assay relates to H460 non-cell lung cancer human tumor cell line. In words: In vitro human tumor cell line cytotoxicity (proliferation) assay, AlamarBlue. Format: cell-based. The procedure: IC50 values are reported in micromolar and result from exposure of compound at various concentrations for 2 hrs followed by a wash step and addition of fresh media followed by growth and cell viability staining and comparison to a media only treated control.
Specifically, exponentially growing cells are seeded at a density of 4×10^3 cells per well in a 96 well plate and incubated at 37° C. in 5% CO2, 95% air and 100% relative humidity for 24 hours prior to addition of test compounds. Compounds are solubilized in 100% DMSO at 200 times the desired final test concentration. At the time of drug addition, compounds are further diluted to 4 times the desired final concentration with complete medium. Aliquots of 50 μl of compound at specified concentrations are added to microtiter wells already containing 150 μl of medium, resulting in the final drug concentration reported. After drug addition, the plates are incubated for an additional 2 hours at 37° C., 5% CO2, 95% air, and 100% relative humidity, then the drug is washed off and fresh medium is added and the plates are incubated for addition 70 hrs at 37° C., 5% CO2, 95% air and 100% relative humidity. At the end of this incubation, the viable cells are quantified using the AlamarBlue assay. The drug concentration resulting in growth inhibition of 50% (IC50) is calculated using Prism software (Irvine, Calif.), and the results are listed in the table.
In general terms: Alamar Blue is a resazurin reagent that responds to reducing activity.

Where [1] appears, read: Homo sapiens, NCI-H460, H460 cells, under air, 2 hrs exposure, wash, then 70 hrs growth, read-out: IC50 (air).
Where [2] appears, read: Homo sapiens, NCI-H460, H460 cells, under nitrogen, 2 hrs exposure, wash, then 70 hrs growth, read-out: IC50 (N2).
The mark [3] stands for this setting: H460 cells, under air, 2 hrs exposure, wash, then 70 hrs growth, read-out: IC50 (air).
Where [4] appears, read: H460 cells, under nitrogen, 2 hrs exposure, wash, then 70 hrs growth, read-out: IC50 (N2).
Where [5] appears, read: Homo sapiens, NCI-H460, read-out: IC50 (N2), H460 cells, under nitrogen, 2 hrs exposure, wash, then 70 hrs growth.
Setting [6] is: Homo sapiens, NCI-H460, read-out: IC50 (air), H460 cells, under air, 2 hrs exposure, wash, then 70 hrs growth.

This is an account of results in US10668047B2, “Aziridine containing DNA alkylating agents” (priority 2015, dated 2020).

Read-outs that look alike come from different tables or passages of the source.

Take `CC(OP(=O)(N1CC1)N1CC1)c1ccc([N+](=O)[O-])c(C(F)F)c1` (stereo not shown) [compound 2821]: the IC50 is, setting by setting: under setting [1], 5 µM; under setting [2], 0.05 µM.
For `CCN(CC)c1cc(C(C)OP(=O)(N2CC2)N2CC2)c(F)cc1[N+](=O)[O-]` (stereo not shown) [compound 2730], in that order: 22 µM and 0.7 µM.
In the case of `CC(C)C(OP(=O)(N1CC1)N1CC1)c1nc(Br)c([N+](=O)[O-])n1C` (stereo not shown) [compound 2624], the IC50 runs as follows: under setting [1], 160 µM; under setting [2], 0.5 µM.
For `CC(C)C(OP(=O)(N1CC1)N1CC1)c1ncc([N+](=O)[O-])n1C1CCCC1` (stereo not shown) [compound 2619], in that order: 99 µM and 2.3 µM.
The matching figures for `C=Cc1cc(C(C)OP(=O)(N2CC2)N2CC2)ccc1[N+](=O)[O-]` (stereo not shown) [compound 2776]: 2.5 µM and 0.4 µM.
Take `CC(OP(=O)(N1CC1)N1CC1)c1ccc([N+](=O)[O-])c(-c2ccccc2)c1` (stereo not shown) [compound 2785]: the IC50 by setting is: under setting [1], 47 µM; under setting [2], 1.6 µM.
For `CC(OP(=O)(N1CC1)N1CC1)c1ccc([N+](=O)[O-])c2ccccc12` (stereo not shown) [compound 2824], in that order: 1.7 µM and 0.02 µM.
For `O=[N+]([O-])c1ncn(-c2ccc(C(F)(F)F)cc2)c1COP(=O)(N1CC1)N1CC1` [compound 2656], in that order: 2.4 µM and 0.1 µM.
On to `CCCCCCCC/C=C/CCCCCCCC(=O)N(C)Cc1nc([N+](=O)[O-])n(C)c1COP(=O)(N1CC1)N1CC1` [compound 2334], for which the IC50 reads like this: under setting [1], 0.14 µM; under setting [2], 0.009 µM.
The matching figures for `Cn1c([N+](=O)[O-])cnc1C(OP(=O)(N1CC1)N1CC1)C(F)(F)F` (stereo not shown) [compound 2145]: 170 µM and 0.4 µM.
Regarding `CC(C)C(OP(=O)(N1CC1)N1CC1)c1ncc([N+](=O)[O-])n1C` (stereo not shown) [compound 2568], the IC50 runs as follows: under setting [3], 350 µM; under setting [4], 0.3 µM.
On to `O=[N+]([O-])c1cc(Cl)c(COP(=O)(N2CC2)N2CC2)c(Cl)c1` [compound 2602], for which the IC50 under setting [1] was 0.25 µM and the IC50 under setting [2] was 0.02 µM.
With `CC(OP(=O)(N1CC1)N1CC1)c1cc(F)c([N+](=O)[O-])cc1F` (stereo not shown) [compound 2721], the IC50 is 9 µM under setting [1] and 0.02 µM under setting [2].
On to `CC(C)C(OP(=O)(N1CC1)N1CC1)c1ncc([N+](=O)[O-])n1CCN1CCCCC1` (stereo not shown) [compound 2603], for which the IC50 by setting is: under setting [1], 29 µM; under setting [2], 0.3 µM.
Regarding `CC(OP(=O)(N1CC1)N1CC1)c1ccc([N+](=O)[O-])c(-n2cnc([N+](=O)[O-])c2)c1` (stereo not shown) [compound 2728], the IC50 worked out at 0.2 µM under setting [5] and 22 µM under setting [6].
With `COc1cc([N+](=O)[O-])ccc1C(C)OP(=O)(N1CC1)N1CC1` (stereo not shown) [compound 2600], the IC50 is 2.8 µM under setting [1] and 0.05 µM under setting [2].
For `CC(OP(=O)(N1CC1)N1CC1)c1ccc([N+](=O)[O-])c(-n2ccnn2)c1` (stereo not shown) [compound 2772], the IC50 runs as follows: under setting [1], 26 µM; under setting [2], 0.05 µM.
For `COc1cc(C(C)OP(=O)(N2CC2)N2CC2)ccc1[N+](=O)[O-]` (stereo not shown) [compound 2620], in that order: 7.4 µM and 2.5 µM.
For `CC(OP(=O)(N1CC1)N1CC1)c1ccc([N+](=O)[O-])c(-c2cccc(C#N)c2)c1` (stereo not shown) [compound 2801], in that order: 47 µM and 2.2 µM.
On to `CC(OP(=O)(N1CC1)N1CC1)c1ccc([N+](=O)[O-])c(-n2ccnc2)c1` (stereo not shown) [compound 2803], for which the IC50 under setting [3] worked out at 150 µM and the IC50 under setting [4] came out at 0.3 µM.
As for `CCCCn1c([N+](=O)[O-])cnc1COP(=O)(N1CC1)N1CC1` [compound 2594], the IC50 was 7.4 µM under setting [1] and 0.15 µM under setting [2].
For `Cn1c([N+](=O)[O-])nc(C(F)F)c1COP(=O)(N1CC1)N1CC1` [compound 2137], in that order: 2.2 µM and 0.02 µM.
The matching figures for `CC(OP(=O)(N1CC1)N1CC1)c1ccc([N+](=O)[O-])c(O)c1` (stereo not shown) [compound 2621]: 39 µM and 0.3 µM.
The matching figures for `Cc1cn(-c2cc(C(C)OP(=O)(N3CC3)N3CC3)ccc2[N+](=O)[O-])cn1` (stereo not shown) [compound 2747]: 39 µM and 0.3 µM.
Take `Cc1nccn1-c1cc(C(C)OP(=O)(N2CC2)N2CC2)c(F)cc1[N+](=O)[O-]` (stereo not shown) [compound 2755]: the IC50 under setting [1] turned out to be 4.4 µM and the IC50 under setting [2] was determined as 0.03 µM.
Consider `CC(OP(=O)(N1CC1)N1CC1)c1ccc([N+](=O)[O-])c(C[N+](=O)[O-])c1` (stereo not shown) [compound 2811], for which the IC50 turned out to be 0.1 µM under setting [5] and 8.4 µM under setting [6].
As to `O=[N+]([O-])c1ccc(COP(=O)(N2CC2)N2CC2)cc1` [compound 2550], the IC50 under setting [1] stood at 29 µM and the IC50 under setting [2] was 1.8 µM.
Consider `CC(C)C(OP(=O)(N1CC1)N1CC1)c1ccc([N+](=O)[O-])cc1` (stereo not shown) [compound 2572], for which the IC50 by setting is: under setting [1], 29 µM; under setting [2], 1.6 µM.
Consider `C=Cc1nc([N+](=O)[O-])n(C)c1COP(=O)(NCCBr)N1CC1` (stereo not shown) [compound 2130], for which the IC50 under setting [5] is 0.005 µM and the IC50 under setting [6] worked out at 1.3 µM.
On to `CC(OP(=O)(N1CC1)N1CC1)c1ccc([N+](=O)[O-])c(-n2cccn2)c1` (stereo not shown) [compound 2748], for which the IC50 runs as follows: under setting [1], 38 µM; under setting [2], 0.3 µM.
The matching figures for `CC(OP(=O)(N1CC1)N1CC1)c1ccc([N+](=O)[O-])c(N2CCCC[C@H]2C)c1` (stereo partly shown) [compound 2740]: 24 µM and 1.4 µM.
The matching figures for `Cc1cccc([N+](=O)[O-])c1C(C)OP(=O)(N1CC1)N1CC1` (stereo not shown) [compound 2615]: 350 µM and 320 µM.
The matching figures for `CC(OP(=O)(N1CC1)N1CC1)c1ccc([N+](=O)[O-])c(C#N)c1` (stereo not shown) [compound 2710]: 3 µM and 0.03 µM.
For `C=CCCn1c([N+](=O)[O-])cnc1C(OP(=O)(N1CC1)N1CC1)C(C)C` (stereo not shown) [compound 2574], the IC50 amounted to 29 µM under setting [1] and 0.1 µM under setting [2].
For `CC(OP(=O)(N1CC1)N1CC1)c1ccc([N+](=O)[O-])c(S(C)(=O)=O)c1` (stereo not shown) [compound 2700], the IC50 is, setting by setting: under setting [1], 370 µM; under setting [2], 350 µM.
In the case of `CC(OP(=O)(N1CC1)N1CC1)c1ccc([N+](=O)[O-])cc1F` (stereo not shown) [compound 2706], the IC50 runs as follows: under setting [1], 14 µM; under setting [2], 0.03 µM.
In the case of `Cc1cccc([N+](=O)[O-])c1COP(=O)(N1CC1)N1CC1` [compound 2588], the IC50 was found to be 10 µM under setting [1] and 1.3 µM under setting [2].
For `CCC(OP(=O)(N1CC1)N1CC1)c1ncc([N+](=O)[O-])n1C` (stereo not shown) [compound 2662], in that order: 22 µM and 0.03 µM.
For `O=[N+]([O-])c1ccc2c(c1)CCCC2OP(=O)(N1CC1)N1CC1` (stereo not shown) [compound 2675], in that order: 3.4 µM and 0.05 µM.
Regarding `Cn1c([N+](=O)[O-])cnc1C(OP(=O)(NCCBr)NCCBr)C1CC1` (stereo not shown) [compound 2519], the IC50 by setting is: under setting [5], greater than 500 µM; under setting [6], greater than 500 µM.
For `CC(C)C(OP(=O)(N1CC1)N1CC1)c1ncc([N+](=O)[O-])n1CCN1CCOCC1` (stereo not shown) [compound 2544], the IC50 by setting is: under setting [1], 45 µM; under setting [2], 0.2 µM.

The term IC50 denotes the concentration at which inhibition is half-maximal.
